Read-outs that look alike come from different tables or passages of the source.
What was measured:
[1] = Evaluation 2 (Storage Stability): accelerated test of polymerization stability of the solid at 60° C.; conditions: for Comprehensive Evaluation (storage stability): sealed bottle, one week
Description: 2.0 g of the solid of styrenesulfonic acid salt was added to glass screw tube bottle, and the bottle was sealed with a plug. Then, the bottle was placed in a box dryer at 60° C., and an accelerated test of polymerization stability was performed.
Sampling was performed every other day for a total of one week to check properties, odor, pH change, and the progress of polymerization by heat.
TOASS was dissolved in dimethylformamide and subjected to GPC analysis using a 10 mmol/L lithium bromide dimethylformamide solution as eluent.

[2] = Evaluation 1 (Solubility): saturation solubility in water, THF, NMP and toluene; assay type: physicochemical; conditions: for Solubility NMP: N-methylpyrrolidone; for Solubility NMP / Solubility THF / Solubility Toluene / Solubility Water: 25° C., saturation solubility; for Solubility THF: tetrahydrofuran
Description: 2 g each of water, tetrahydrofuran (THF), N-methylpyrrolidone (NMP), and toluene were added to glass screw tube bottles. Small portions of styrenesulfonic acid salts were added thereto at 25° C., and the solubilities thereof were observed while shaking the bottles by hand. In each case, the point at which the solid started to remain was determined to be saturation solubility, and the solubility was calculated by the following Equation. Solubility (wt %)=A/(S+A)×100
A: Weight of amine added (g)

Compound | Monomer (area %), after one week ([1]; GPC, solid, 60° C.) [area %] | Odor, after one week ([1]; solid, 60° C.) | Solubility (in words) [2] | Properties on the first day of evaluation ([1]; solid, 60° C., first day) | Solubility in water (in words) [2] | Comprehensive Evaluation (storage stability) ([1]; solid, 60° C.) | Solubility NMP [2] | Solubility THF [2] | Solubility Toluene [2] | Solubility Water ([2]; water) | Monomer (area %), before start of reaction ([1]; GPC, before start of the 60° C. test) [area %] | Odor, before start of reaction ([1]; before start of the 60° C. test) | Solubility in an organic solvent (in words) ([2]; organic solvent) | Solubility in water (in words) ([2]; water) | Solubility (in words) ([2]; overall, Evaluation 1)
C=Cc1ccc(S(=O)(=O)O)cc1.CCCCCCCCN [MOASS, parastyrenesulfonic acid n-monooctylamine salt, reference compound] | 92.20 | No | did not have sufficient solubility |  |  |  |  |  |  |  |  |  |  |  | 
C=Cc1ccc(S(=O)(=O)O)cc1.CCCCCCCCN(CCCCCCCC)CCCCCCCC [TOASS, parastyrenesulfonic acid n-trioctylamine, reference compound] | 0.00 | Yes |  | yellow translucent plastic form | poor water solubility |  |  |  |  |  |  |  |  |  | 
parastyrenesulfonic acid N,N-diisopropylethylamine salt [DIPEASS] | 92.40 | No |  |  |  | ∘ | ∘ (Easily soluble (10 wt % or more)) | Δ (Soluble (1 to 10 wt %)) | Δ (Soluble (1 to 10 wt %)) | ∘ (Easily soluble (10 wt % or more)) |  |  |  |  | 
parastyrenesulfonic acid N,N-dimethylcyclohexylamine salt [CHASS] | 97.24 | No |  |  |  | ∘ | ∘ (Easily soluble (10 wt % or more)) | ∘ (Easily soluble (10 wt % or more)) | Δ (Soluble (1 to 10 wt %)) | ∘ (Easily soluble (10 wt % or more)) | 100 | No | sufficient solubility in an organic solvent | soluble in water | 
parastyrenesulfonic acid dicyclohexylamine salt [DCHASS, reference compound] |  |  |  |  |  |  | ∘ (Easily soluble (10 wt % or more)) | x (Insoluble (1 wt % or less)) | x (Insoluble (1 wt % or less)) | x (Insoluble (1 wt % or less)) |  |  |  |  | did not have sufficient solubility

Source: patent US11459410B2, “High-purity amphipathic arylsulfonic acid amine salt vinyl monomer and copolymer thereof” (TOSOH FINECHEM CORPORATION, priority 2017, dated 2022)
